In brackets after ≈: the same amount, converted by molar mass.
Assays:
[1] = tested on: Candida strains; assay: MIC, broth microdilution, range stated over several Candida strains; assay type: cell-based, Candida spp.
Method: (§1) C. albicans strains SC5314 and ATCC 90028, C. krusei ATCC 6258 and C. parapsilosis ATCC 22019 were used in the study. The strains were stored at −80°C in nutrient broth supplemented with 2.0% glycerol stock. Prior to experimentation, each strain was streaked for single colonies on Sabouraud Dextrose (SDA) agar plates and incubated overnight at 37°C.
(§2) Antifungal activity of the designed peptides was determined according to a standardized broth microdilution method (Clinical and Laboratory Standards Institute (CLSI) document M27-A2). Briefly, the yeast colonies from 24- hour-old cultures of Candida species were picked and resuspended in 5 mL of sterile 0.145 mol/L saline and adjusted to cell density of 1 × 10^6 to 5 × 10^6 cells/ml. The yeast stock suspension was then diluted to obtain a starting inoculum of 5.0 × 10^2 to 2.5 × 10^3 cells/ml. […] The drugs were dissolved in DMSO and prepared to a stock concentration of 25 mg/L and 50 mg/L, respectively. […] 100 μL of standardized yeast suspension was then added to each well. Plates were incubated for 48 hours at 37°C. The minimum inhibitory concentration (MIC) was defined as the lowest concentration that inhibited 90% growth of Candida species. The MICs were determined three times and each time in duplicate.

[2] = tested on: C. albicans SC5314 biofilms; assay: Biofilm reduction assay (XTT); assay type: cell-based, Candida albicans; details: minimum concentration giving 50% reduction of viability of 24 h-old biofilm, 24 h treatment, 1-4× MIC tested
Method: Biofilms of C. albicans were formed on commercially available pre-sterilized, polystyrene, flat bottomed 96 well microtitre plates as described by Jin et al with modification. Firstly, a standardized yeast suspension (10^7 cells/ml) of C. albicans SC5314 was prepared by suspending colonies from 24-hours old culture in RPMI 1640 medium and adjusted to an optical density of 0.38–0.39 at 520 nm. 100 μL of yeast suspension was dispensed into each well of a microtitre plate using a multichannel pipette and the plates were incubated in a shaking incubator at 37°C with 75 rpm for 90 minutes to allow adherence of yeast on the surface of each well. After the adhesion phase, the non-adherent cells were removed and each well was washed twice with 150 μL PBS. 100 μL of RPMI 1640 medium was transferred to each washed well and the plates were incubated at 37°C in a shaking incubator at 75 rpm for 24 hours to allow biofilm formation. Following biofilm phase, the medium was aspirated and each well was washed twice gently with 200 μL PBS to remove non-adherent cells. Residual PBS was removed by inverting the plates over an absorbent paper before addition of peptides. […] Antifungal agent-free wells and biofilm-free wells were included as positive and negative controls. After treatment with peptides, the medium was removed and each well was washed twice with 200 μL PBS. The biofilm formation was quantified by using XTT reduction assay as described below. Each experiment was repeated three times in duplicate.
XTT reduction assay was performed according to the method adapted from Jin et al.[44] Briefly, XTT (Sigma) was dissolved to a concentration of 1 mg/ml using sterile PBS. XTT solution was then filter-sterilized using a 0.22 μm-pore-size filter and kept at −70°C prior to use. 0.4 mM menadione solution was prepared by dissolving menadione (Sigma) with acetone. The menadione solution was filter-sterilized and kept at −70°C before use. Prior to each assay, XTT solution was thawed and mixed with menadione solution at a volume ratio of 20:1. After washing, a total volume of 200 μL of XTT-menadione mixture (158 μL of PBS, 40 μL of XTT and 2 μL of menadione) was added to each prewashed biofilm and control wells. The plates were incubated in the dark for 2 hours at 37°C. 100 μL of the solution was transferred to new wells and the colorimetric change in the solution was measured using a microtiter plate reader at 490 nm. Antibiofilm activity of the peptides and conventional antifungals was expressed as the biofilm-eradicating concentration 2 (BEC-2), which is defined as the minimum concentration of the peptides resulting in 50% reduction of the biofilm viability compared to the growth control.

[3] = tested on: C. albicans SC5314; assay: Time killing assay; assay type: cell-based, Candida albicans; details: 2× MIC
Method: A fungal suspension was adjusted to a 0.5 McFarland turbidity standard with cell density of 1 × 10^6 to 5 × 10^6 cells/ml. 100 μL of adjusted yeast suspension was exposed to 900 μL of RPMI medium containing peptide, yielding a starting inoculum of approximately 10^5 cells/ml. The solutions were incubated at 37°C with agitation. At the predetermined time interval of 0, 1, 2, 4 and 6 hours, 10 μL or 30 μL of the samples were removed, serially diluted with phosphate-buffered saline (PBS) and plated on SDA plates to allow colony counts after 24 hours of incubation. Controls for yeast growth and antifungal agents were also performed. The lower limit of accurate and reproducible quantitation was 100 CFU/ml. Results were obtained from three independent experiments.

[4] = tested on: Candida krusei ATCC 6258; assay: MIC, broth microdilution (CLSI M27-A2); assay type: cell-based; details: Pichia kudriavzevii, ATCC6258; C. krusei ATCC 6258; RPMI 1640-MOPS, 48 h, 37°C; lowest concentration inhibiting 90% growth; three times in duplicate; read-out: Minimum Inhibitory Concentration (MIC)
Method: as §1, §2

[5] = tested on: Candida albicans SC 5314; assay: MIC, broth microdilution (CLSI M27-A2); assay type: cell-based; details: Candida albicans, SC5314; C. albicans SC 5314; RPMI 1640-MOPS, 48 h, 37°C; lowest concentration inhibiting 90% growth; three times in duplicate; read-out: Minimum Inhibitory Concentration (MIC)
Method: as §1, §2

[6] = tested on: Candida parapsilosis ATCC 22019; assay: MIC, broth microdilution (CLSI M27-A2); assay type: cell-based; details: Lodderomyces parapsilosis, ATCC22019; C. parapsilosis ATCC 22019; RPMI 1640-MOPS, 48 h, 37°C; lowest concentration inhibiting 90% growth; three times in duplicate; read-out: Minimum Inhibitory Concentration (MIC)
Method: as §1, §2

[7] = tested on: Candida albicans ATCC 90028; assay: MIC, broth microdilution (CLSI M27-A2); assay type: cell-based; details: Candida albicans, ATCC90028; C. albicans ATCC 90028; RPMI 1640-MOPS, 48 h, 37°C; lowest concentration inhibiting 90% growth; three times in duplicate; read-out: Minimum Inhibitory Concentration (MIC)
Method: as §1, §2

[8] = tested on: Het-1A cell line; assay: cells; details: Homo sapiens, HET-1A
Method: (§3) The human normal vaginal epithelial cell line VK2/E6E7 (ATCC® CRL-2616™) and human normal esophagus epithelial cell line Het-1A (ATCC® CRL-2692™) were used for cytotoxicity testing. VK2/E6E7 cell line was grown in Keratinocyte-Serum Free medium (GIBCO-BRL 17005-042) supplemented with 0.1 ng/ml human recombinant EGF, 0.05 mg/ml bovine pituitary extract, and 44.1 mg/L calcium chloride. […] Cell viability was measured by using CellTiter 96® Aqueous Non-Radioactive Cell Proliferation Assay (Promega, USA) and the colourimetric changes were determined at 490 nm using a microplate reader. […] Results were recorded by averaging three repeated experiments and each experiment was performed in duplicate.

[9] = tested on: VK2/E6E7 cell line; assay: cells; details: Homo sapiens
Method: as §3

For `OC(Cn1cncn1)(Cn1cncn1)c1ccc(F)cc1F` [Fluconazole, reference compound], the “MIC values, range” value ([1]; range for two C. albicans strains and C. parapsilosis) was 1 to 2 µg/mL, the BEC-2 values [2] was greater than 4 mg/L and the BEC-2 values ([2]; listed as fluconazole) was greater than 4 mg/L. The “reduction in yeast growth” value [3] was greater than 99.9%, the MIC [4] was 64 µg/mL (≈ 209 µM) and the MIC [5] was 1 µg/mL (≈ 3.27 µM). It also gave an MIC [6] of 1 µg/mL (≈ 3.27 µM) and an MIC [7] of 2 µg/mL (≈ 6.53 µM).

`C[C@@H]1[C@H](O)[C@@H](C)/C=C/C=C/C=C/C=C/C=C/C=C/C=C/[C@H](O[C@@H]2O[C@H](C)[C@@H](O)[C@H](N)[C@@H]2O)C[C@@H]2O[C@](O)(C[C@@H](O)C[C@@H](O)[C@H](O)CC[C@@H](O)C[C@@H](O)CC(=O)O[C@H]1C)C[C@H](O)[C@H]2C(=O)O` [Amphotericin B, reference compound] was tested, and the “MIC values, range” value ([1]; range against four Candida strains (C. albicans and non-albicans species)) was 0.5 to 1 µg/mL, the BEC-2 values [2] was less than 1 mg/L and the BEC-2 values ([2]; listed as amphotericin B) was greater than 1 mg/L. The “% killing” value ([3]; within 2 hours) was greater than 99.99%, the “mean log reduction in viable cells” value ([3]; within 2 hours, RPMI, 37°C, mean ± SD of three experiments) was 5.44 ± 0.07 log CFU/mL and the MIC [4] was 1 µg/mL (≈ 1.08 µM). For the same compound, the MIC [5] was 1 µg/mL (≈ 1.08 µM), the MIC [6] was 1 µg/mL (≈ 1.08 µM) and the MIC [7] was 0.5 µg/mL (≈ 0.541 µM). The IC50 ([8]; 24 h) was 9.91 ± 3.35 µg/mL (≈ 10.7 µM), the IC50 ([8]; 48 h) was 7.78 ± 1.7 µg/mL (≈ 8.42 µM) and the IC50 ([8]; 72 h) was 9.1 ± 0.98 µg/mL (≈ 9.85 µM). For the same compound, the IC50 ([9]; 24 h) was 8.13 ± 4.54 µg/mL (≈ 8.8 µM), the IC50 ([9]; 48 h) was 7.64 ± 2.95 µg/mL (≈ 8.27 µM) and the IC50 ([9]; 72 h) was 15.3 ± 3.72 µg/mL (≈ 16.6 µM).
